Consider two compounds from patent publication EP0631503B1, “USE OF VASOACTIVE INTESTINAL PEPTIDE (VIP) TO INDUCE TEMPORARY PARALYSIS OF THE GASTROINTESTINAL TRACT” (KORMAN, Louis Y., priority 1991, dated 2001).

Where two headings read alike, the source gives them in different places.

How the values of data set [1] were obtained:
During the period of observation, vital signs (blood pressure and pulse) and symptoms were continuously recorded. The protocol was such that if the blood pressure dropped by more than 20 mm Hg systolic or diastolic or the pulse increased by more than 30 beats per minute for 2 minutes, intravenous saline was to be administered and the study terminated.

The conditions of data set [2]: in vivo; cited from earlier work.
The next data set relates to opossum duodenum. The following applies: cited from earlier work.
For data set [3] the following is noted: dose dependent side effects; cited from earlier work.
A further data set concerns gastroduodenal motility. The following applies: reduction in gastroduodenal motility, dose-dependent; cited from earlier work.
The subject of data set [4] is contractions in the antrum. The following applies: doses as high as 2 mg; cited from earlier work.
Another data set relates to antroduodenal activity. The following applies: 1 mg i.v. followed by 2 mg IV over 2 hours; cited from earlier work.
Setting [5] is: first patient, initial dose of 5 ng VIP per kg.

Regarding `CC[C@H](C)[C@H](NC(=O)[C@H](CO)NC(=O)[C@H](CC(N)=O)NC(=O)[C@H](CC(C)C)NC(=O)[C@H](Cc1ccc(O)cc1)NC(=O)[C@H](CCCCN)NC(=O)[C@H](CCCCN)NC(=O)[C@@H](NC(=O)[C@H](C)NC(=O)[C@H](CCSC)NC(=O)[C@H](CCC(N)=O)NC(=O)[C@H](CCCCN)NC(=O)[C@H](CCCN=C(N)N)NC(=O)[C@H](CC(C)C)NC(=O)[C@H](CCCN=C(N)N)NC(=O)[C@@H](NC(=O)[C@H](Cc1ccc(O)cc1)NC(=O)[C@H](CC(N)=O)NC(=O)[C@H](CC(=O)O)NC(=O)[C@@H](NC(=O)[C@H](Cc1ccccc1)NC(=O)[C@@H](NC(=O)[C@H](C)NC(=O)[C@H](CC(=O)O)NC(=O)[C@H](CO)NC(=O)[C@@H](N)Cc1c[nH]cn1)C(C)C)[C@@H](C)O)[C@@H](C)O)C(C)C)C(=O)N[C@@H](CC(C)C)C(=O)N[C@@H](CC(N)=O)C(N)=O` [VIP, vasoactive intestinal peptide], the “effects on blood pressure and pulse” value in data set [1] (first patient, higher dose level (20 ng/kg)) is recorded as “not seen”. In data set [1] (setting [5]), the pulse result is reported as “increase” and the systolic pressure result was “slight decrease”. Further, the blood pressure entry in data set [1] (second patient, 5 and 20 ng/kg of bodyweight) is on record as “no significant effect”. For the same compound, in data set [1] (second patient, any of the dosages tested), the “blood pressure or pulse” value was “no significant change”. In data set [1] (third patient, any dose of VIP administered), the “blood pressure or pulse” value was “no significant change”. The “adverse reactions such as nausea or vomiting” value in data set [1] (three patients studied) is reported as “None of the three patients studied experienced any adverse reactions”.
On to glucagon, for which the colonoscopic evaluation entry in data set [2] is “does not facilitate”. Further, in the data set on opossum duodenum, the effect on duodenum entry is “stimulated relaxation”. Besides, the “dose at which nausea and vomiting can appear” value in data set [3] is listed as 1 mg. For the same compound, the minimally effective dose with gastroduodenal motility was 0.5 mg. For the same compound, in data set [4], the “contractions in the antrum” value was “does not reduce contractions”. Moreover, in the data set with antroduodenal activity, the “cycle length and time between contractile activity in the duodenum” value is recorded as “significantly increased”; the mean pressure period result is reported as “decreased”.
